Test results as given in patent publication US9567322B2, “Substituted tetrahydropyrans and method of use” (AbbVie S.á.r.l., priority 2014, dated 2017).
pEC50: −log10 of the molar value.

Target: T1, F508delCFTR (Homo sapiens, UniProt P13569, DEL508-508)
T1 construct: expressed in transfected cells; host or cells: CFBE41o- (CFBE41o-F508delCFTR-HRP), doxycycline-inducible
Assay: Cell Surface Expression-Horse Radish Peroxidase (CSE-HRP) assay
Type: cell-based
Settings: CFBE41o-F508delCFTR-HRP cells; for pEC50: cell surface expression, luminescence readout, 18-24 hours at 33° C., highest concentration tested 20 μM, 8-point curve; for Maximum % activity: maximum at any tested concentration, normalized to on-plate positive control (3 μM) and DMSO
Description: Cell Surface Expression-Horse Radish Peroxidase (CSE-HRP) Assay:
A cellular assay for measuring the F508delCFTR cell surface expression after correction with test compounds was developed in human lung derived epithelial cell line (CFBE41o-) (Veit G et al, (2012) Mol Biol Cell. 23(21): 4188-4202). This was achieved by expressing the F508delCFTR mutation along with a horseradish peroxidase (HRP) in the fourth exofacial loop and then measuring the HRP activity using luminescence readout from these cells, CFBE41o-F508delCFTR-HRP, that were incubated overnight with the test corrector compounds. Briefly, for this primary assay, the CFBE41o-F508delCFTR-HRP cells were plated in 384-well plates (Greiner Bio-one; Cat 781080) at 4,000 cells/well along with 0.5 μg/mL doxycycline to induce the F508delCFTR-HRP expression and further incubated at 37° C., 5% CO2 for 72 hours. The test compounds were then added at the required concentrations and further incubated for 18-24 hours at 33° C. The highest concentration tested was 20 μM with an 8-point concentration response curve using a 3-fold dilution. Three replicate plates were run to determine one EC50. All plates contained negative controls (dimethyl sulfoxide, DMSO) and positive controls (3 μM of 3-[(2R,4R)-4-({[1-(2,2-difluoro-1,3-benzodioxol-5-yl)cyclopropyl]carbonyl}amino)-7-methoxy-3,4-dihydro-2H-chromen-2-yl]benzoic acid) as well as on-plate concentration response of the positive control. Post incubation, the plates were washed 5× times with Dulbecco's phosphate buffered saline (DPBS), followed by the addition of the HRP substrate, luminol (50 μL), and measuring the HRP activity using luminescence readout on EnVision® Multilabel Plate Reader (Perkin Elmer; product number 2104-0010). The raw counts from the experiment are analyzed using Accelrys® Assay Explorer v3.3.
Z′ greater than 0.5 was used as passing quality control criteria for the plates.
The Z′ is defined as: 1−[3*SDPositive Control+3*SDNegative Control/Absolute(MeanPositive Control−MeanNegative Control)],
wherein “SD” is standard deviation.
The % activity measured at each of the 8 test concentrations of the test compound was normalized to the on-plate positive control using the following formula: % activity=[(test compound response−DMSO response)/(positive control response−DMSO response)]*100
The maximum % activity achieved for the test compound at any tested concentration is presented in Table 1 along with the EC50 calculated using the following general sigmoidal curve with variable Hill slope equation (described as Model 42 in the Accelrys® Assay Explorer v3.3 software): y=(a−d)/(1+(x/c)^b)+d General sigmoidal curve with concentration, response, top, bottom, EC50 and Hill slope.
This model describes a sigmoidal curve with an adjustable baseline, a. The equation can be used to fit curves where response is either increasing or decreasing with respect to the independent variable, “x”.
“x” is a concentration of drug under test.
“a” is the maximum response, and “d” is the minimum response
“c” is the inflection point (EC50) for the curve. That is, “y” is halfway between the lower and upper asymptotes when x=c.
“b” is the slope-factor or Hill coefficient. The sign of b is positive when the response increases with increasing dose and is negative when the response decreases with increasing dose (inhibition).

T1 sequence (P13569 with tags, fused parts or gaps DEL508-508): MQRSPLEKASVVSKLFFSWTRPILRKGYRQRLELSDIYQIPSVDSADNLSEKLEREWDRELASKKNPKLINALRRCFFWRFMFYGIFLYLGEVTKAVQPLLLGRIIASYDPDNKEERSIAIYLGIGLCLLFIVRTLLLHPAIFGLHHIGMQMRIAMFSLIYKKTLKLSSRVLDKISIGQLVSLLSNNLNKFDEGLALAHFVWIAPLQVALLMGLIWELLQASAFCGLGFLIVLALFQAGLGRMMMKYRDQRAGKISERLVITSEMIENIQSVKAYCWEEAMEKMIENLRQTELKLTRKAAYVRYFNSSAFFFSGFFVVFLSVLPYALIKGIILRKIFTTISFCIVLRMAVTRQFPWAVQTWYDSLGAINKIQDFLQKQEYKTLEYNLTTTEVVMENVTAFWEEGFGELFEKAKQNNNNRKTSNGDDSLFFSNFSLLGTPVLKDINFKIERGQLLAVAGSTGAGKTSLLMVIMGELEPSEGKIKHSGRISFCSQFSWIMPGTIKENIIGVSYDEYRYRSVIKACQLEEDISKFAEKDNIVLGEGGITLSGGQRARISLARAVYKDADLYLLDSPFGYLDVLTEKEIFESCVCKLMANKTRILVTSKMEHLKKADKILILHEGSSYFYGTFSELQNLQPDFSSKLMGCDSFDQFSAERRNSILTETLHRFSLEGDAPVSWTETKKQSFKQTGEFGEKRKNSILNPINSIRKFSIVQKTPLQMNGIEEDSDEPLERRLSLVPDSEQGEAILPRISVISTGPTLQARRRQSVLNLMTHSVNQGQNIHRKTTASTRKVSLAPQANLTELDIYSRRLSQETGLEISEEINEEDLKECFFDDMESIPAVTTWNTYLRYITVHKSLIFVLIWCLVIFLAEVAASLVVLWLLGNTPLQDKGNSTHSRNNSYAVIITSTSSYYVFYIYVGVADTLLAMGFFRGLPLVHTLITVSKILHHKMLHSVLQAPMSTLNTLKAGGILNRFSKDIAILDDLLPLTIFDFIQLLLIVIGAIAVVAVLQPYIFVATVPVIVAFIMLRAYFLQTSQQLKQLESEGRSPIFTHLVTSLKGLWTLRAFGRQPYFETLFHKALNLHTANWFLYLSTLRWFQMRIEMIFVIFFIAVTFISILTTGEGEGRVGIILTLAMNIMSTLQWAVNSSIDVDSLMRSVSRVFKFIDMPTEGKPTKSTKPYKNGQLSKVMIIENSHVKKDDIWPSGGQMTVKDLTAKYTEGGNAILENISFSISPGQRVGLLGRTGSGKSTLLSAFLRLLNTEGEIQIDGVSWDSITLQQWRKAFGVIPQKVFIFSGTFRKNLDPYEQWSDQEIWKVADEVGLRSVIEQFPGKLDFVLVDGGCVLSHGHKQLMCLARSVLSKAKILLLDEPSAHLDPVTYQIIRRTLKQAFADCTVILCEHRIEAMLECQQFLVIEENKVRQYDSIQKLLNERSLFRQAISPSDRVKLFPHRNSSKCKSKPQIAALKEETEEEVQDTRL

| Structure (SMILES) | pEC50 | Maximum % activity |
| --- | --- | --- |
| COC(=O)c1ccc([C@H]2C[C@@H](NC(=O)C3(c4ccc5c(c4)OC(F)(F)O5)CC3)CC(C)(C)O2)cc1 (racemic) [Example 34, methyl rac-4-[(2R,4R)-4-({[1-(2,2-difluoro-1,3-benzodioxol-5-yl)cyclopropyl]carbonyl}amino)-6,6-dimethyltetrahydro-2H-pyran-2-yl]benzoate] | 5.79 | 105% |
| CC1(C)C[C@H](NC(=O)C2(c3ccc4c(c3)OC(F)(F)O4)CC2)C[C@H](c2ccc(C(=O)O)cc2)O1 (racemic) [Example 35, rac-4-[(2R,4R)-4-({[1-(2,2-difluoro-1,3-benzodioxol-5-yl)cyclopropyl]carbonyl}amino)-6,6-dimethyltetrahydro-2H-pyran-2-yl]benzoic acid] | 5.54 | 89% |
| COC(=O)c1ccc([C@H]2CC(NC(=O)C3(c4ccc5c(c4)OC(F)(F)O5)CC3)C[C@@H](C3CC3)O2)cc1 (mixture of isomers) [Example 38, methyl rac-4-[(2R,6S)-6-cyclopropyl-4-({[1-(2,2-difluoro-1,3-benzodioxol-5-yl)cyclopropyl]carbonyl}amino)tetrahydro-2H-pyran-2-yl]benzoate] | 5.61 | 84% |
| COC(=O)c1ccc([C@H]2C[C@@H](NC(=O)C3(c4ccc5c(c4)OC(F)(F)O5)CC3)C[C@@H](C)O2)cc1 (racemic) [Example 39, methyl rac-4-[(2R,4S,6R)-4-({[1-(2,2-difluoro-1,3-benzodioxol-5-yl)cyclopropyl]carbonyl}amino)-6-methyltetrahydro-2H-pyran-2-yl]benzoate] | 5.79 | 90% |
| C[C@@H]1C[C@H](NC(=O)C2(c3ccc4c(c3)OC(F)(F)O4)CC2)C[C@H](c2ccc(C(=O)O)cc2)O1 (racemic) [Example 45, rac-4-[(2R,4S,6R)-4-({[1-(2,2-difluoro-1,3-benzodioxol-5-yl)cyclopropyl]carbonyl}amino)-6-methyltetrahydro-2H-pyran-2-yl]benzoic acid] | 5.70 | 101% |
| COC(=O)c1ccc([C@H]2C[C@H](NC(=O)C3(c4ccc5c(c4)OC(F)(F)O5)CC3)C[C@@H](C)O2)cc1 (racemic) [Example 46, methyl rac-4-[(2R,4R,6R)-4-({[1-(2,2-difluoro-1,3-benzodioxol-5-yl)cyclopropyl]carbonyl}amino)-6-methyltetrahydro-2H-pyran-2-yl]benzoate] | 5.34 | 67% |
| COC(=O)c1ccc([C@H]2C[C@H](NC(=O)C3(c4ccc5c(c4)OC(F)(F)O5)CC3)C[C@@H](c3ccccc3)O2)cc1 (racemic) [Example 47, methyl rac-4-[(2R,4R,6S)-4-({[1-(2,2-difluoro-1,3-benzodioxol-5-yl)cyclopropyl]carbonyl}amino)-6-phenyltetrahydro-2H-pyran-2-yl]benzoate] | 5.19 | 73% |
| O=C(O)c1ccc([C@H]2C[C@H](NC(=O)C3(c4ccc5c(c4)OC(F)(F)O5)CC3)C[C@@H](c3ccccc3)O2)cc1 (racemic) [Example 49, rac-4-[(2R,4R,6S)-4-({[1-(2,2-difluoro-1,3-benzodioxol-5-yl)cyclopropyl]carbonyl}amino)-6-phenyltetrahydro-2H-pyran-2-yl]benzoic acid] | 5.51 | 77% |
| COc1ccc([C@@H]2C[C@@H](NC(=O)C3(c4ccc5c(c4)OC(F)(F)O5)CC3)C[C@H](c3ccc(C(=O)O)cc3)O2)cc1 (racemic) [Example 56, rac-4-[(2R,4S,6S)-4-({[1-(2,2-difluoro-1,3-benzodioxol-5-yl)cyclopropyl]carbonyl}amino)-6-(4-methoxyphenyl)tetrahydro-2H-pyran-2-yl]benzoic acid] | 5.72 | 89% |
| O=C(O)c1ccc([C@H]2C[C@H](NC(=O)C3(c4ccc5c(c4)OC(F)(F)O5)CC3)C[C@@H](c3ccccc3)O2)c(F)c1 (racemic) [Example 61, rac-4-[(2R,4R,6S)-4-({[1-(2,2-difluoro-1,3-benzodioxol-5-yl)cyclopropyl]carbonyl}amino)-6-phenyltetrahydro-2H-pyran-2-yl]-3-fluorobenzoic acid] | 5.60 | 82% |
| COC(=O)c1ccc([C@H]2C[C@@H](NC(=O)C3(c4ccc5c(c4)OC(F)(F)O5)CC3)C[C@@H](c3ccccc3)O2)c(C)c1 (racemic) [Example 62, methyl rac-4-[(2R,4S,6S)-4-({[1-(2,2-difluoro-1,3-benzodioxol-5-yl)cyclopropyl]carbonyl}amino)-6-phenyltetrahydro-2H-pyran-2-yl]-3-methylbenzoate] | 6.06 | 111% |

Continued by rising pEC50, values first:

| pEC50 | Maximum % activity | Structure (SMILES) |
| --- | --- | --- |
| 6.07 | 104% | COC(=O)c1ccc([C@H]2C[C@@H](NC(=O)C3(c4ccc5c(c4)OC(F)(F)O5)CC3)C[C@@H](c3ccc(OC)cc3)O2)cc1 (racemic) [Example 55, methyl rac-4-[(2R,4R,6S)-4-({[1-(2,2-difluoro-1,3-benzodioxol-5-yl)cyclopropyl]carbonyl}amino)-6-(4-methoxyphenyl)tetrahydro-2H-pyran-2-yl]benzoate] |
| 6.07 | 105% | COC(=O)c1ccc([C@H]2C[C@@H](NC(=O)C3(c4ccc5c(c4)OC(F)(F)O5)CC3)C[C@@H](c3ccccc3)O2)c(F)c1 (racemic) [Example 63, methyl rac-4-[(2R,4S,6S)-4-({[1-(2,2-difluoro-1,3-benzodioxol-5-yl)cyclopropyl]carbonyl}amino)-6-phenyltetrahydro-2H-pyran-2-yl]-3-fluorobenzoate] |
| 6.08 | 100% | COC(=O)c1ccc([C@H]2C[C@@H](NC(=O)C3(c4ccc5c(c4)OC(F)(F)O5)CC3)C[C@@H](c3ccccc3)O2)cc1 (racemic) [Example 48, methyl rac-4-[(2R,4S,6S)-4-({[1-(2,2-difluoro-1,3-benzodioxol-5-yl)cyclopropyl]carbonyl}amino)-6-phenyltetrahydro-2H-pyran-2-yl]benzoate] |
| 6.24 | 90% | COc1ccc([C@@H]2C[C@H](NC(=O)C3(c4ccc5c(c4)OC(F)(F)O5)CC3)C[C@H](c3ccc(C(=O)O)cc3)O2)cc1 (racemic) [Example 57, rac-4-[(2R,4R,6S)-4-({[1-(2,2-difluoro-1,3-benzodioxol-5-yl)cyclopropyl]carbonyl}amino)-6-(4-methoxyphenyl)tetrahydro-2H-pyran-2-yl]benzoic acid] |
| 6.24 | 100% | COC(=O)c1ccc([C@H]2C[C@@H](NC(=O)C3(c4ccc5c(c4)OC(F)(F)O5)CC3)CCO2)c(C)c1 (racemic) [Example 36, methyl rac-4-[(2R,4S)-4-({[1-(2,2-difluoro-1,3-benzodioxol-5-yl)cyclopropyl]carbonyl}amino)tetrahydro-2H-pyran-2-yl]-3-methylbenzoate] |
| 6.28 | 92% | O=C(O)c1ccc([C@H]2C[C@@H](NC(=O)C3(c4ccc5c(c4)OC(F)(F)O5)CC3)C[C@@H](c3ccccc3)O2)cc1 (racemic) [Example 50, rac-4-[(2R,4S,6S)-4-({[1-(2,2-difluoro-1,3-benzodioxol-5-yl)cyclopropyl]carbonyl}amino)-6-phenyltetrahydro-2H-pyran-2-yl]benzoic acid] |
